# Source: PubChem BioAssay AID1963838 (Molecular Pharmacology Branch, DTP, NCI, 2024)
# Tested on: 855422-203-R-J1-PDC complex spheroid viability
# Assay: Anticancer human tumor 855422-203-R-J1-PDC patient-derived bladder carcinoma cell line growth inhibition [POLQ]
# Conditions: for IC50: curve of first compound; for viability, T/C: stronger effect = lower value
# Summary of the method: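 Patient-derived tumour cells were co-cultured with HUVEC and mesenchymal stem cells as multicellular spheroids at 37 °C. They were treated with POLQ inhibitors (novobiocin, ART-558, RP6685) alone or combined with other agents. Top concentrations were at or near clinical Cmax (otherwise 10 microM; SN-38 at 1 microM), decreasing in half-log steps.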
# [1] = second compound 0.0316 µM, first compound 0.0316 µM
# [2] = second compound 0.0316 µM, first compound 0.1 µM
# [3] = second compound 0.1 µM, first compound 0.0316 µM
# [4] = second compound 0.1 µM, first compound 0.1 µM
# [5] = second compound 0.316 µM, first compound 0.0316 µM
# [6] = second compound 0.316 µM, first compound 0.1 µM
# [7] = second compound 1 µM, first compound 0.0316 µM
# [8] = second compound 1 µM, first compound 0.1 µM
# [9] = second compound 3.16 µM, first compound 0.0316 µM
# [10] = second compound 3.16 µM, first compound 0.1 µM
# [11] = second compound 10 µM, first compound 0.0316 µM
# [12] = second compound 10 µM, first compound 0.1 µM
# [13] = second compound 0.0316 µM, first compound 0.316 µM
# [14] = second compound 0.0316 µM, first compound 1 µM
# [15] = second compound 0.0316 µM, first compound 3.16 µM
# [16] = second compound 0.0316 µM, first compound 10 µM
# [17] = second compound 0.1 µM, first compound 0.316 µM
# [18] = second compound 0.1 µM, first compound 1 µM
# [19] = second compound 0.1 µM, first compound 3.16 µM
# [20] = second compound 0.1 µM, first compound 10 µM
# [21] = second compound 0.316 µM, first compound 0.316 µM
# [22] = second compound 0.316 µM, first compound 1 µM
# [23] = second compound 0.316 µM, first compound 3.16 µM
# [24] = second compound 0.316 µM, first compound 10 µM
# [25] = second compound 1 µM, first compound 0.316 µM
# [26] = second compound 1 µM, first compound 1 µM
# [27] = second compound 1 µM, first compound 3.16 µM
# [28] = second compound 1 µM, first compound 10 µM
# [29] = second compound 3.16 µM, first compound 0.316 µM
# [30] = second compound 3.16 µM, first compound 1 µM
# [31] = second compound 3.16 µM, first compound 3.16 µM
# [32] = second compound 3.16 µM, first compound 10 µM
# [33] = second compound 10 µM, first compound 0.316 µM
# [34] = second compound 10 µM, first compound 1 µM
# [35] = second compound 10 µM, first compound 3.16 µM
# [36] = second compound 10 µM, first compound 10 µM
# 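Further: spheroids exposed to compounds for seven days before readout.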
smiles,measurement,setting,value
CC[C@@]1(O)C(=O)OCc2c1cc1n(c2=O)Cc2cc3c(CN(C)C)c(O)ccc3nc2-1 + Cc1cccc(N(C)C(=O)C2C(O)CCN2c2nc(C)cc(C(F)(F)F)c2C#N)c1,IC50,second compound 0.0316 µM,29.1 nM
same,IC50,second compound 0.1 µM,32.4 nM
same,IC50,second compound 0.316 µM,28 nM
same,IC50,second compound 1 µM,26.5 nM
same,IC50,second compound 3.16 µM,26.4 nM
same,IC50,second compound 10 µM,23.1 nM
same,"viability, T/C","second compound 0.0316 µM, first compound 0.000316 µM",102%
same,"viability, T/C","second compound 0.0316 µM, first compound 0.001 µM",97.4%
same,"viability, T/C","second compound 0.0316 µM, first compound 0.00316 µM",99.8%
same,"viability, T/C","second compound 0.0316 µM, first compound 0.01 µM",82.5%
same,"viability, T/C",[1],47.7%
same,"viability, T/C",[2],13.3%
same,"viability, T/C","second compound 0.1 µM, first compound 0.000316 µM",118%
same,"viability, T/C","second compound 0.1 µM, first compound 0.001 µM",104%
same,"viability, T/C","second compound 0.1 µM, first compound 0.00316 µM",99%
same,"viability, T/C","second compound 0.1 µM, first compound 0.01 µM",103%
same,"viability, T/C",[3],50.8%
same,"viability, T/C",[4],13.7%
same,"viability, T/C","second compound 0.316 µM, first compound 0.000316 µM",94.7%
same,"viability, T/C","second compound 0.316 µM, first compound 0.001 µM",105%
same,"viability, T/C","second compound 0.316 µM, first compound 0.00316 µM",97.5%
same,"viability, T/C","second compound 0.316 µM, first compound 0.01 µM",99.5%
same,"viability, T/C",[5],44.1%
same,"viability, T/C",[6],14.1%
same,"viability, T/C","second compound 1 µM, first compound 0.000316 µM",99.7%
same,"viability, T/C","second compound 1 µM, first compound 0.001 µM",96.4%
same,"viability, T/C","second compound 1 µM, first compound 0.00316 µM",116%
same,"viability, T/C","second compound 1 µM, first compound 0.01 µM",89.4%
same,"viability, T/C",[7],43%
same,"viability, T/C",[8],12.4%
same,"viability, T/C","second compound 3.16 µM, first compound 0.000316 µM",102%
same,"viability, T/C","second compound 3.16 µM, first compound 0.001 µM",100%
same,"viability, T/C","second compound 3.16 µM, first compound 0.00316 µM",113%
same,"viability, T/C","second compound 3.16 µM, first compound 0.01 µM",94.9%
same,"viability, T/C",[9],41.6%
same,"viability, T/C",[10],11.9%
same,"viability, T/C","second compound 10 µM, first compound 0.000316 µM",97.4%
same,"viability, T/C","second compound 10 µM, first compound 0.001 µM",97.7%
same,"viability, T/C","second compound 10 µM, first compound 0.00316 µM",107%
same,"viability, T/C","second compound 10 µM, first compound 0.01 µM",86.8%
same,"viability, T/C",[11],36%
same,"viability, T/C",[12],11.6%
COc1cc(C2c3cc4c(cc3C(OC3OC5COC(C)OC5C(O)C3O)C3COC(=O)C23)OCO4)cc(OC)c1O (stereo unspecified) + Cc1cccc(N(C)C(=O)C2C(O)CCN2c2nc(C)cc(C(F)(F)F)c2C#N)c1,IC50,second compound 0.0316 µM,229 nM
same,IC50,second compound 0.1 µM,222 nM
same,IC50,second compound 0.316 µM,205 nM
same,IC50,second compound 1 µM,189 nM
same,IC50,second compound 3.16 µM,180 nM
same,IC50,second compound 10 µM,137 nM
same,"viability, T/C",[1],102%
same,"viability, T/C",[2],102%
same,"viability, T/C",[13],30.1%
same,"viability, T/C",[14],11.4%
same,"viability, T/C",[15],7.61%
same,"viability, T/C",[16],4.64%
same,"viability, T/C",[3],98.4%
same,"viability, T/C",[4],98.4%
same,"viability, T/C",[17],28.7%
same,"viability, T/C",[18],12.5%
same,"viability, T/C",[19],6.62%
same,"viability, T/C",[20],4.51%
same,"viability, T/C",[5],111%
same,"viability, T/C",[6],89.8%
same,"viability, T/C",[21],25.9%
same,"viability, T/C",[22],11.4%
same,"viability, T/C",[23],8.46%
same,"viability, T/C",[24],4.61%
same,"viability, T/C",[7],113%
same,"viability, T/C",[8],80.2%
same,"viability, T/C",[25],24.8%
same,"viability, T/C",[26],11.8%
same,"viability, T/C",[27],6.9%
same,"viability, T/C",[28],5.16%
same,"viability, T/C",[9],97.7%
same,"viability, T/C",[10],77%
same,"viability, T/C",[29],23.5%
same,"viability, T/C",[30],12.4%
same,"viability, T/C",[31],6.67%
same,"viability, T/C",[32],4.34%
same,"viability, T/C",[11],97%
same,"viability, T/C",[12],60.9%
same,"viability, T/C",[33],20.7%
same,"viability, T/C",[34],13.5%
same,"viability, T/C",[35],6.34%
same,"viability, T/C",[36],4.46%
O=c1[nH]cc(F)c(=O)[nH]1 + Cc1cccc(N(C)C(=O)C2C(O)CCN2c2nc(C)cc(C(F)(F)F)c2C#N)c1,IC50,second compound 0.0316 µM,605 nM
same,IC50,second compound 0.1 µM,389 nM
same,IC50,second compound 0.316 µM,387 nM
same,IC50,second compound 1 µM,496 nM
same,IC50,second compound 3.16 µM,537 nM
same,IC50,second compound 10 µM,554 nM
same,"viability, T/C",[1],133%
same,"viability, T/C",[2],96.3%
same,"viability, T/C",[13],67.1%
same,"viability, T/C",[14],36.8%
same,"viability, T/C",[15],27.6%
same,"viability, T/C",[16],25.7%
same,"viability, T/C",[3],109%
same,"viability, T/C",[4],128%
same,"viability, T/C",[17],54.8%
same,"viability, T/C",[18],33.2%
same,"viability, T/C",[19],26.3%
same,"viability, T/C",[20],24.2%
same,"viability, T/C",[5],115%
same,"viability, T/C",[6],118%
same,"viability, T/C",[21],54.6%
same,"viability, T/C",[22],34.5%
same,"viability, T/C",[23],27.4%
same,"viability, T/C",[24],23.1%
same,"viability, T/C",[7],112%
same,"viability, T/C",[8],107%
same,"viability, T/C",[25],61.1%
same,"viability, T/C",[26],33.7%
same,"viability, T/C",[27],26.6%
same,"viability, T/C",[28],24.1%
same,"viability, T/C",[9],109%
same,"viability, T/C",[10],99.5%
same,"viability, T/C",[29],62.6%
same,"viability, T/C",[30],35.2%
same,"viability, T/C",[31],29.1%
same,"viability, T/C",[32],27%
same,"viability, T/C",[11],109%
same,"viability, T/C",[12],114%
same,"viability, T/C",[33],65.2%
same,"viability, T/C",[34],40.1%
same,"viability, T/C",[35],32.6%
same,"viability, T/C",[36],26.6%
